The source of these data is US6989351B2, “Metabolic inhibitors against brassinosteroids” (Riken, priority 2000, dated 2006).

In test [1] the test system is brassinosteroid biosynthesis. Kind of test: action on plants when used at a high concentration. From the text: Methods of application and doses of the metabolism inhibitor of the present invention can be suitably chosen by those skilled in the art depending on conditions including a purpose of application, a dosage form, a plot to be treated and the like. […] Such a phenomenon is recognized in difenoconazole, Brz217, Brz218, Brz224, Brz225 and the like, which are typical examples of the metabolism inhibitor of the present invention. Therefore, the metabolism inhibitor of the present invention is preferably applied to plants at a relatively low concentration. However, concentrations to achieve optimum action can be appropriately determined by those skilled in the art by referring to the following examples.

Test [2] relates to metabolism of brassinolide. Kind of test: brassinolide metabolism in cell free system (degradation associated with oxidation of the 26th position of brassinolide). Format: biochemical. Conditions: cell free system from immature seeds of Pisum sativum. How it is done:
To examine whether the accelerating activity on elongation of the cress hypocotyl was on the basis of the inhibitory activity against the metabolism of brassinolide, which is considered to be a practically active brassinosteroid, activity of the compounds was examined in degradation system associated with oxidation of the 26th position of brassinolide. Immature seeds of Pisum sativum were used as plant materials. Brassinolide was added to a cell free system, and metabolic activity was determined by quantifying the compound at the right end in the following scheme to examine inhibitory action of difenoconazole against metabolism. [drawing 6]

Turning to `CCCC1COC(Cn2cncn2)(c2cccc(Cl)c2)O1` (stereo not drawn) [Brz218], the “action at a high concentration, opposite to the action of the metabolism inhibitor” value (“action … of the metabolism inhibitor” below) in test [1] was “inhibit brassinosteroid biosynthesis when used at a high concentration”.

Turning to `CCCC1COC(Cn2cncn2)(c2ccccc2Cl)O1` (stereo not drawn) [Brz217], in test [1], the “action … of the metabolism inhibitor” value was “inhibit brassinosteroid biosynthesis when used at a high concentration”. Still for that read-out and setting: to `CCCC1COC(Cn2cncn2)(c2ccc(OC)cc2)O1` (stereo not drawn) [Brz224] belongs “inhibit brassinosteroid biosynthesis when used at a high concentration”. On to `COCC1COC(Cn2cncn2)(c2ccc(Cl)cc2)O1` (stereo not drawn) [Brz225], for which the “action … of the metabolism inhibitor” value in test [1] is on record as “inhibit brassinosteroid biosynthesis when used at a high concentration”.

Take `CC1COC(Cn2cncn2)(c2ccc(Oc3ccc(Cl)cc3)cc2Cl)O1` (stereo not drawn) [Difenoconazole, difenoconazole]: the “Ratio of metabolism inhibition degree (%) relative to control” value in test [2] (0.01 μM) was determined as 0%; in test [2] (0.1 μM), 7%; in test [2] (1.0 μM), 72%; in test [2] (10 μM), 76%. For the same compound, the “action … of the metabolism inhibitor” value in test [1] is given as “inhibit brassinosteroid biosynthesis when used at a high concentration”.
